Values quoted from earlier work as cited in US20150164917A1 (VALPHARMA INTERNATIONAL S.P.A., priority 2012, published 2015).

Tested on: uterine fibrosis
Conditions: 5 mg daily oral for 6 months, compared with higher doses

## CC#C[C@]1(O)CC[C@H]2[C@@H]3CCC4=CC(=O)CCC4=C3[C@@H](c3ccc(N(C)C)cc3)C[C@@]21C [Mifepristone]
  effects in the treatment of uterine fibrosis: effects comparable with those of higher doses of Mifepristone
